Positions count from the first letter of the chain named.
Experiments:
FLT3 D835H = biological target: T1, FLT3 D835H (Homo sapiens, UniProt P36888, D835H); assay: DiscoverX KINOMEscan competition binding, FLT3 D835H
T1 construct: purchased DiscoverX (KINOMEscan)
T1 sequence (P36888 27-993 D835H): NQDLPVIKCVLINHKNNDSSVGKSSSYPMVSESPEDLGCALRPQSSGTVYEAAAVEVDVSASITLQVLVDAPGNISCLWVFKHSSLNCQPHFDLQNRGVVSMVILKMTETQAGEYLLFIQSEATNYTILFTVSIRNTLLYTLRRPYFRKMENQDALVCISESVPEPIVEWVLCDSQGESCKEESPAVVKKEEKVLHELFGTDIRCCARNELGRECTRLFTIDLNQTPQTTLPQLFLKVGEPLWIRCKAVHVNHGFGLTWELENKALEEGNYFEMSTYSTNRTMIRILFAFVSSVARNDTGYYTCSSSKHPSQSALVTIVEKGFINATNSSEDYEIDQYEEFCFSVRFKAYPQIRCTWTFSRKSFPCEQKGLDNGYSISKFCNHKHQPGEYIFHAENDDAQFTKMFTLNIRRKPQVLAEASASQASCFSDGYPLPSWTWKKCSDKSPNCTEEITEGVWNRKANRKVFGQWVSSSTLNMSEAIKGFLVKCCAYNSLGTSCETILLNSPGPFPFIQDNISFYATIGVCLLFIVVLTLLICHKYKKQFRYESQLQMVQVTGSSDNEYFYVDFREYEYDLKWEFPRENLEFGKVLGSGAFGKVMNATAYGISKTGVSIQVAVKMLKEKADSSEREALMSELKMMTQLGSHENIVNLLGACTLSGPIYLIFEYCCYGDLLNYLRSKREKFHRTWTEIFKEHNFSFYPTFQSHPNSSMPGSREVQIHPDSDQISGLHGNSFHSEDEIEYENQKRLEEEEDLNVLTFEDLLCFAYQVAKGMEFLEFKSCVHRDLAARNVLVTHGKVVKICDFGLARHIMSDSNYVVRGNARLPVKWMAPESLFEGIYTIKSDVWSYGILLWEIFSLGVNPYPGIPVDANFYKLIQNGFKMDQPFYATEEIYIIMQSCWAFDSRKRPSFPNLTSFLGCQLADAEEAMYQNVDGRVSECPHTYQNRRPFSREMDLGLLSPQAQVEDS

FLT3 ITD, F691L = biological target: T2, FLT3 ITD, F691L (Homo sapiens, UniProt P36888, F691L, form not given); assay: DiscoverX KINOMEscan competition binding, FLT3 ITD, F691L; settings: read-out: FLT3 ITD, F691L Kd
T2 sequence (P36888 1-993 F691L): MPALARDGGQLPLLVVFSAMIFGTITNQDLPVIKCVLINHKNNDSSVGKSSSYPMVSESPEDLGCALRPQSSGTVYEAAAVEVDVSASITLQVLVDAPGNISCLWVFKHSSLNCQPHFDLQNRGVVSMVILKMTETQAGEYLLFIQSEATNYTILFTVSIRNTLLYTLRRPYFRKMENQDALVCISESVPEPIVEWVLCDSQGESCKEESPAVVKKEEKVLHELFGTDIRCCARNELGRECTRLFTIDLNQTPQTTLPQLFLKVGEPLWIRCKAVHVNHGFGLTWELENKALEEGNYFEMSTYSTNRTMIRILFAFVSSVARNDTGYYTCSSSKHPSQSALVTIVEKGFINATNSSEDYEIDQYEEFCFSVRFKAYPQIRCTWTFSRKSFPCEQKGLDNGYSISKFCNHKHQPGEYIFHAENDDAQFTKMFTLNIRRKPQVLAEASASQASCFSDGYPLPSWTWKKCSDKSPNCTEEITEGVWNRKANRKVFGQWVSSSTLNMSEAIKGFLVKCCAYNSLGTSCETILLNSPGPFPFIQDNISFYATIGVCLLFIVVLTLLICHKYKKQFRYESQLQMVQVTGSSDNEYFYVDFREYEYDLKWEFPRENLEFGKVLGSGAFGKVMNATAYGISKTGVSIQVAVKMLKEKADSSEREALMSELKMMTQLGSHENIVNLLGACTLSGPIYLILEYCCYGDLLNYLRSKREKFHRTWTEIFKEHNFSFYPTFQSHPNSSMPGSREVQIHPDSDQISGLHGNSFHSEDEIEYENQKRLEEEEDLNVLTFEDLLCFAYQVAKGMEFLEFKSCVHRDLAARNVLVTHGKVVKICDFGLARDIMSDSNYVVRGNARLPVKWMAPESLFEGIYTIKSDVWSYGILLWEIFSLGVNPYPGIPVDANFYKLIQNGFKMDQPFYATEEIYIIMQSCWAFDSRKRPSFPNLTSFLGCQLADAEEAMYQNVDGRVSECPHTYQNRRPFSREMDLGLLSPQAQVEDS

FLT3 = biological target: T3, FLT3 (Homo sapiens, UniProt P36888); assay: DiscoverX KINOMEscan competition binding, FLT3; parameters: using full-length kinases in the presence of cellular concentrations of ATP in live, uncompromised cells
T3 sequence (P36888 27-993): T1 sequence (P36888 27-993 D835H) with H809D

SMILES | Kd (FLT3 D835H) [nM] | Kd (FLT3 ITD, F691L) [nM] | Kd (FLT3) [nM]
CC(O)(c1cn2c(-c3ccnc(N[C@H]4CNCC[C@@H]4F)n3)cnc2cn1)C(F)(F)F (single isomer, unassigned) [Compound 72] | 1.1 | 1.8 | 5.2
F[C@H]1CCNC[C@@H]1Nc1cncc(-c2cnc3cc(OC4CC4)ccn23)n1 [Compound 12, 6-(7-cyclopropoxyimidazo[1,2-a]pyridin-3-yl)-N-((3S,4S)-4-fluoropiperidin-3-yl)pyrazin-2-amine] | 1.1 | 0.046 | 1.9
COc1cc2ncc(-c3ccnc(N[C@H]4CNCC[C@@H]4F)n3)n2nc1C1CC1 [Compound 51, 4-(6-cyclopropyl-7-methoxyimidazo[1,2-b]pyridazin-3-yl)-N-((3S,4S)-4-fluoropiperidin-3-yl)pyrimidin-2-amine] | 0.47 | 0.08 | 0.22

Continued, values first:

Kd (FLT3 D835H) [nM] | Kd (FLT3 ITD, F691L) [nM] | Kd (FLT3) [nM] | SMILES
0.87 | 0.078 | 1.8 | COc1cc2ncc(-c3cncc(N[C@H]4CNC[C@@H]4F)n3)n2nc1C1CC1 [Compound 22, 6-(6-cyclopropyl-7-methoxyimidazo[1,2-b]pyridazin-3-yl)-N-((3S,4S)-4-fluoropyrrolidin-3-yl)pyrazin-2-amine]
0.33 | 0.048 | 0.19 | COc1cc2ncc(-c3cncc(N[C@H]4CNCC[C@@H]4F)n3)n2nc1C1CC1 [Compound 24, 6-(6-cyclopropyl-7-methoxyimidazo[1,2-b]pyridazin-3-yl)-N-((3S,4S)-4-fluoropiperidin-3-yl)pyrazin-2-amine]
0.28 | 0.092 | 0.28 | COc1cc2ncc(-c3ccnc(N[C@@H]4CCCNC4)n3)n2cc1C(C)(C)O [Compound 44, (R)-2-(7-methoxy-3-(2-(piperidin-3-ylamino)pyrimidin-4-yl)imidazo[1,2-a]pyridin-6-yl)propan-2-ol]
0.46 | 0.085 | 0.26 | COc1cc2ncc(-c3ccnc(N[C@H]4CNC[C@@H]4F)n3)n2nc1C1CC1 [Compound 49, 4-(6-cyclopropyl-7-methoxyimidazo[1,2-b]pyridazin-3-yl)-N-((3S,4S)-4-fluoropyrrolidin-3-yl)pyrimidin-2-amine]
